US12679839B2, “Cyclin-dependent kinase 7 (CDK7) non-covalent inhibitors” (JANSSEN PHARMACEUTICA NV, priority 2020, dated 2026)

Molecular target: T1, CDK7/Cyclin H/MAT-1 complex (Homo sapiens, UniProt P50613)
T1 construct: Human CDK7 (amino acids 1-346); His6 (N); TEV protease cleavage site (N); made in house; host or cells: baculovirus-SF9 insect cells
Experiment: Absorbance kinetic assay (20 nM CDK7/Cyclin H/MAT-1 complex)
Type: biochemical
Conditions: for IC50: read-out: CDK7 (20 nM) pIC50 (converted)
In short: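 Trimeric complex (His6-TEV CDK7 1-346, MAT1 1-309, cyclin H 1-323) from Sf9 cells, at 20 nM, phosphorylating RNA Pol II-derived CDK7/9-tide; ADP coupled via PK/LDH to NADH depletion read at 340 nm every 2 min for 8 h. Steady-state slopes gave % inhibition; IC50 from 11-point Hill fit.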

T1 sequence (P50613 whole entry, the tested form may be a part): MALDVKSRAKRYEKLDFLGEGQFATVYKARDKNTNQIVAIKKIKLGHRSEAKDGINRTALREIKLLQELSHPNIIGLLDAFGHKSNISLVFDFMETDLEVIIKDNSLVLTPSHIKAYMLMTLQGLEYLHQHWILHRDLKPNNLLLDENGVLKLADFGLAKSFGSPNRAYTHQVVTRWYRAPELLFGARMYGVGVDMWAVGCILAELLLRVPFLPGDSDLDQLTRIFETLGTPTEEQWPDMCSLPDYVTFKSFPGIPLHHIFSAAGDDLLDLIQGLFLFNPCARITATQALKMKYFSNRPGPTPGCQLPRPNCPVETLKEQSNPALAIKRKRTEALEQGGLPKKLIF
T1 sequence (P51946 whole entry partner, the tested form may be a part): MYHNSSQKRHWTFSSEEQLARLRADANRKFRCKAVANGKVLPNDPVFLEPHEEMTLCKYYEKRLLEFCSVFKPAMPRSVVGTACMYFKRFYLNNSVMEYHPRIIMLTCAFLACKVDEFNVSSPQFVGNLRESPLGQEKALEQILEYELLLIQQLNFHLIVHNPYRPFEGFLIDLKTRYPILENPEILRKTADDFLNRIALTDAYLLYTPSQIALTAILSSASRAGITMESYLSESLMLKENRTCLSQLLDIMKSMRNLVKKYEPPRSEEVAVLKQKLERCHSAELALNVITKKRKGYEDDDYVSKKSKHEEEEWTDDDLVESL
T1 sequence (P51948 whole entry partner, the tested form may be a part): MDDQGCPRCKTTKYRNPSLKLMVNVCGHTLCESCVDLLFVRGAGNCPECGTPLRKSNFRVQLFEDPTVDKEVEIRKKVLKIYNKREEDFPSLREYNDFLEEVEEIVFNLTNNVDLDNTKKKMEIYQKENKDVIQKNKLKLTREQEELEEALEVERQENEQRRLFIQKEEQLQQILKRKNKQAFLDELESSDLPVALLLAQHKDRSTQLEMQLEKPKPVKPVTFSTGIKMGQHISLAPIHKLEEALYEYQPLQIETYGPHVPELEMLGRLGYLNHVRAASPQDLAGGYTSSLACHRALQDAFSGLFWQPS

Structure (SMILES)	CDK7 (20 nM) pIC50	IC50
C[C@@H]1Cc2cnc(NC3CCOCC3)nc2CN1C(=O)[C@@H]1CC[C@@H](N(C)C)CN1c1ccccc1 (mixture of isomers) [Compound 167]	6.25	–
C[C@@H]1Cc2cnc(N[C@H]3CCC(=O)N(C)C3)nc2CN1C(=O)[C@H]1CCN(C)C[C@@H]1c1ccccc1 (relative stereo) [Compound 7]	–	< 9.77 nM
C[C@@H]1Cc2cnc(N[C@@H]3CCOC4(CCC4)C3)nc2CN1C(=O)[C@H]1CCN(C)C[C@@H]1c1ccccc1 (relative stereo) [Compound 8]	–	< 9.77 nM
C[C@@H]1Cc2cnc(N[C@H]3CCOC4(CCC4)C3)nc2CN1C(=O)[C@H]1CCN(C)C[C@@H]1c1ccccc1 (relative stereo) [Compound 9]	–	< 9.77 nM
C[C@@H]1Cc2cnc(N[C@@H]3CCOC(C)(C)C3)nc2CN1C(=O)[C@H]1CCN(C)C[C@@H]1c1ccccc1 (relative stereo) [Compound 40]	–	11 nM
Cc1ccc([C@@H]2CN(C)CC[C@H]2C(=O)N2Cc3nc(NC4CCOCC4)ncc3C[C@H]2C)cn1 (relative stereo) [Compound 108]	–	105 nM
CO[C@H]1CC[C@H](Nc2ncc3c(n2)CN(C(=O)[C@H]2CCN(C)C[C@@H]2c2ccc(C)nc2)[C@H](C)C3)CC1 (relative stereo) [Compound 110]	–	< 9.77 nM
Cc1cccc([C@H]2CN(C)CC[C@@H]2C(=O)N2Cc3nc(Nc4cnn(C)c4)ncc3C[C@H]2C)c1 (relative stereo) [Compound 126]	–	15.5 nM
C[C@@H]1Cc2cnc(NCc3ccn(C)n3)nc2CN1C(=O)[C@@H]1CCN(C)C[C@H]1c1cccc(OC(F)(F)F)c1 (relative stereo) [Compound 127]	–	234 nM
C[C@@H]1Cc2cnc(NCc3ccn(C)n3)nc2CN1C(=O)[C@H]1CCN(C)C[C@@H]1c1cccc(OC(F)(F)F)c1 (relative stereo) [Compound 128]	–	18.6 nM
C[C@H]1Cc2cnc(NCc3ccn(C)n3)cc2CN1C(=O)[C@H]1CCN(C)C[C@@H]1c1ccccc1 (relative stereo) [Compound 174]	–	11.2 nM
C[C@H]1Cc2cnc(Nc3cnn(C)c3)cc2CN1C(=O)[C@H]1CCN(C)C[C@@H]1c1ccccc1 (relative stereo) [Compound 176]	–	22.9 nM
Cc1cccc([C@H]2CN(C)CC[C@@H]2C(=O)N2Cc3nc(Nc4cnn(C)c4)ncc3[C@@H]3C[C@@H]32)c1 (relative stereo) [Compound 203]	–	17 nM
C[C@H]1Cc2cnc(NC3CCOCC3)nc2CN1C(=O)N1CCN(C)C[C@H]1c1cccc(F)c1 (relative stereo) [Compound 212]	–	13.2 nM
C[C@@H]1Cc2cnc(N[C@H](C)c3ccn(C)n3)nc2CN1C(=O)[C@H]1CCN(C)C[C@@H]1c1ccccc1 (single isomer, unassigned) [Compound 54]	–	12.3 nM
C[C@H](Nc1ncc2c(n1)CN(C(=O)[C@H]1CCN(C)C[C@@H]1c1ccccc1)[C@H](C)C2)c1ccn(C)n1 (single isomer, unassigned) [Compound 55]	–	141 nM
C[C@@H]1Cc2cnc(NCc3ccccc3)nc2CN1C(=O)[C@H]1CCN(CC2COC2)C[C@@H]1c1ccccc1 (single isomer, unassigned) [Compound 155]	>8.01	–
CC(C)N1CC[C@H](C(=O)N2Cc3nc(NC4CCOCC4)ncc3C[C@H]2C)[C@@H](c2cccc(Cl)c2)C1 (single isomer, unassigned) [Compound 160]	6.96	–
C[C@H]1Cc2cnc(NC3CCOCC3)cc2CN1C(=O)[C@H]1CCN(C)C[C@@H]1c1ccccc1 (single isomer, unassigned) [Compound 171a]	–	9.77 nM
C[C@H]1Cc2cnc(NC3(c4ccccc4)COC3)cc2CN1C(=O)[C@H]1CCN(C)C[C@@H]1c1ccccc1 (single isomer, unassigned) [Compound 175]	7.52	–
CN1CC[C@H](C(=O)N2Cc3nc(NCc4ccn(C)n4)ncc3CC2(C)C)[C@@H](c2ccccc2)C1 (single isomer, unassigned) [Compound 191]	6.53	–
C[C@@H]1Cc2cnc(NCc3ccn(C)n3)nc2CN1C(=O)[C@H]1CCN(C)C[C@@H]1c1ccccc1 [Compound 1]	8.01	–
C[C@@H]1Cc2cnc(NC3CCC(OCC4CC4)CC3)nc2CN1C(=O)[C@H]1CCN(C)C[C@@H]1c1ccccc1 (some centres unmarked) [Compound 3]	>8.01	–
CO[C@]1(C)CC[C@@H](Nc2ncc3c(n2)CN(C(=O)[C@H]2CCN(C)C[C@@H]2c2ccccc2)[C@H](C)C3)CC1 [Compound 10]	>8.01	–
C[C@@H]1Cc2cnc(N[C@H]3CC[C@H](O)CC3)nc2CN1C(=O)[C@H]1CCN(C)C[C@@H]1c1ccccc1 [Compound 12]	>8.01	–
C[C@@H]1Cc2cnc(N[C@H]3CC[C@H](C)CC3)nc2CN1C(=O)[C@H]1CCN(C)C[C@@H]1c1ccccc1 [Compound 13]	8.01	–
C[C@H](Nc1ncc2c(n1)CN(C(=O)[C@H]1CCN(C)C[C@@H]1c1ccccc1)[C@H](C)C2)c1ccccn1 [Compound 20]	8.01	–

Structure (SMILES)	CDK7 (20 nM) pIC50	IC50
C[C@@H]1Cc2cnc(N[C@H](C)c3ccccc3)nc2CN1C(=O)[C@H]1CCN(C)C[C@@H]1c1ccccc1 [Compound 22]	8.01	–
C[C@@H]1Cc2cnc(NC3Cc4ccccc4C3)nc2CN1C(=O)[C@H]1CCN(C)C[C@@H]1c1ccccc1 [Compound 29]	8.01	–
CO[C@H]1CC[C@H](Nc2ncc3c(n2)CN(C(=O)[C@H]2CCN(C)C[C@@H]2c2ccccc2)[C@H](C)C3)CC1 [Compound 37]	8.01	–
C[C@@H]1Cc2cnc(NCc3ccccc3)nc2CN1C(=O)[C@H]1CCN(C)C[C@@H]1c1ccccc1 [Compound 43]	8.01	–
C[C@@H]1Cc2cnc(NC3CCS(=O)(=O)CC3)nc2CN1C(=O)[C@H]1CCN(C)C[C@@H]1c1ccccc1 [Compound 44]	>7.7	–
C[C@@H]1Cc2cnc(NC3CCN(CC(F)(F)F)CC3)nc2CN1C(=O)[C@H]1CCN(C)C[C@@H]1c1ccccc1 [Compound 45]	7.62	–
C[C@@H]1Cc2cnc(NC3CCOCC3)nc2CN1C(=O)[C@H]1CCN(C)C[C@@H]1c1ccccc1 [Compound 47]	>7.7	–
C[C@@H]1Cc2cnc(NCc3ccsc3)nc2CN1C(=O)[C@H]1CCN(C)C[C@@H]1c1ccccc1 [Compound 48]	7.59	–
C[C@@H]1Cc2cnc(NCC3CCS(=O)(=O)C3)nc2CN1C(=O)[C@H]1CCN(C)C[C@@H]1c1ccccc1 (some centres unmarked) [Compound 49]	6.62	–
Cc1ccc(CNc2ncc3c(n2)CN(C(=O)[C@H]2CCN(C)C[C@@H]2c2ccccc2)[C@H](C)C3)o1 [Compound 50]	7.6	–
C[C@@H]1Cc2cnc(NCc3cc[nH]n3)nc2CN1C(=O)[C@H]1CCN(C)C[C@@H]1c1ccccc1 [Compound 51]	–	51.3 nM
Cc1ncc(CNc2ncc3c(n2)CN(C(=O)[C@H]2CCN(C)C[C@@H]2c2ccccc2)[C@H](C)C3)[nH]1 [Compound 52]	7.97	–
C[C@@H]1Cc2cnc(NC[C@H]3CCOC3)nc2CN1C(=O)[C@H]1CCN(C)C[C@@H]1c1ccccc1 [Compound 53]	7.39	–
C[C@@H]1Cc2cnc(NCc3cc(C(F)F)n(C)n3)nc2CN1C(=O)[C@H]1CCN(C)C[C@@H]1c1ccccc1 [Compound 56]	6.85	–
C[C@@H]1Cc2cnc(NCc3cnn(C)c3)nc2CN1C(=O)[C@H]1CCN(C)C[C@@H]1c1ccccc1 [Compound 57]	6.66	–
CCn1ccc(CNc2ncc3c(n2)CN(C(=O)[C@H]2CCN(C)C[C@@H]2c2ccccc2)[C@H](C)C3)n1 [Compound 58]	>8.01	–
C[C@@H]1Cc2cnc(N[C@H]3CCC[C@H](O)C3)nc2CN1C(=O)[C@H]1CCN(C)C[C@@H]1c1ccccc1 [Compound 59]	>8.01	–
C[C@@H]1Cc2cnc(NCc3ccn(C)c3)nc2CN1C(=O)[C@H]1CCN(C)C[C@@H]1c1ccccc1 [Compound 60]	–	< 9.77 nM
Cc1cn(C)nc1CNc1ncc2c(n1)CN(C(=O)[C@H]1CCN(C)C[C@@H]1c1ccccc1)[C@H](C)C2 [Compound 61]	>8.01	–
C[C@@H]1Cc2cnc(NC[C@@H]3CCOC3)nc2CN1C(=O)[C@H]1CCN(C)C[C@@H]1c1ccccc1 [Compound 62]	>8.01	–
Cc1cc(CNc2ncc3c(n2)CN(C(=O)[C@H]2CCN(C)C[C@@H]2c2ccccc2)[C@H](C)C3)nn1C [Compound 65]	7.58	–
CC(C)n1ccc(CNc2ncc3c(n2)CN(C(=O)[C@H]2CCN(C)C[C@@H]2c2ccccc2)[C@H](C)C3)n1 [Compound 66]	>8.01	–
C[C@@H]1Cc2cnc(NC[C@@H]3CCCO3)nc2CN1C(=O)[C@H]1CCN(C)C[C@@H]1c1ccccc1 [Compound 67]	–	< 9.77 nM
C[C@@H]1Cc2cnc(NC3CCC(OC(F)F)CC3)nc2CN1C(=O)[C@H]1CCN(C)C[C@@H]1c1ccccc1 (some centres unmarked) [Compound 69]	>8.01	–
[2H]C([2H])(Nc1ncc2c(n1)CN(C(=O)[C@H]1CCN(C)C[C@@H]1c1ccccc1)[C@H](C)C2)c1ccccc1 [Compound 70]	–	< 9.77 nM
C[C@@H]1Cc2cnc(N[C@@H](CO)c3ccccc3)nc2CN1C(=O)[C@H]1CCN(C)C[C@@H]1c1ccccc1 [Compound 71]	>8.01	–
